Data from the METLIN SMRT retention time set (Domingo-Almenara et al. 2019).

Experiment: gradient 5% acetonitrile 3 min, to 50% in 2 min, to 85% in 15 min, held 3 min, 100 µL/min
Conditions: column: Zorbax Extend-C18 2.1 x 50 mm; eluents: water / acetonitrile, 0.1% formic acid
How it was run: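 Retention time was recorded from adduct peaks, which were picked computationally and each inspected manually. Pure standards ran in mixtures of ~100 molecules on HPLC coupled to a quadrupole time-of-flight mass spectrometer, in positive and negative ionization mode, through a Zorbax Extend-C18 column (2.1 × 50 mm, 1.8 μm) at 100 μL/min. Eluents were water and acetonitrile, each with 0.1% formic acid.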

Compound	RP-LC retention time
COc1ccc(Cl)c2c(=O)c3c([nH]c12)CCN(CC(=O)Nc1cccc(Cl)c1)C3	645 s
CCCNC(=O)C1CCCN(c2ccc(SCC(=O)Nc3ccc(S(C)(=O)=O)cc3)nn2)C1 (stereo not drawn)	614 s
CCOc1cc(=O)n2c(c1C(=O)Nc1ccc(C(N)=O)cc1)CCCC2	584 s
O=C(Nc1ccc(F)cc1)N1CCCC1c1nc(-c2ccc(F)cc2F)no1 (stereo not drawn)	934 s
O=C(Nc1cc(-c2ccccc2)nn1CCO)c1ccsc1	726 s
Cc1nc(-c2csc(S(=O)(=O)N3CCC(C(=O)NCc4ccc(Cl)cc4)CC3)c2)no1	926 s
COC(=O)c1ccc2c(=O)n(Cc3ccc(F)cc3)c(N3CCCCC3)nc2c1	1210 s
CC(C)n1c(=O)sc2cc(S(=O)(=O)N3CCC(C(=O)NC4CCCCCCC4)CC3)ccc21	1040 s
Cc1cc(=O)n(CC#N)c(N2CCCCC2)n1	655 s
CN1CCN(C(=O)O[C@H]2c3nccnc3C(=O)N2c2ccc(Cl)cn2)CC1	660 s
CCN1C(=O)CCc2cc(NC(=O)COc3ccc(F)cc3)ccc21	801 s
Cc1ccc(-c2nnc(Cc3nc(-c4ccccc4)no3)o2)cc1F	1050 s
O=C(O)C1CCN(c2nc3ccc(-c4cncnc4)nc3s2)CC1	674 s
CC(=O)N1CCc2cc(N3CC(C(=O)Nc4ccccc4C)CC3=O)ccc21 (stereo not drawn)	692 s
COc1cccc(-c2nc3cnccn3c2NCCC(=O)NC2CCCCCC2)c1	755 s
CCCCN(C)C(=O)c1ccc2c(c1)NC(=O)C(CC(C)C)N2 (stereo not drawn)	581 s
CCOC(=O)Cc1ccc(NC(=O)N2CCCC2c2cccs2)cc1 (stereo not drawn)	921 s
CC(C)C(=O)Nc1ccc(CCc2nc3ccc(C(=O)NCc4ccc5c(c4)OCO5)cc3[nH]2)cc1	669 s
COc1ccc(OC)c(NC(=O)C2CC(=O)N(c3n[nH]c4cccc(F)c34)C2)c1 (stereo not drawn)	732 s
COc1cc(NC(=O)c2ccc3cccc(O)c3n2)cc(OC)c1OC	880 s
CCC(=O)N1CCc2sc(C(=O)N3CCN(c4ccccn4)CC3)cc2C1	582 s
COc1cc(C(=O)N2CCC3(CC2)N=C(c2ccc(Cl)cc2)C(=O)N3)cc(OC)c1OC	812 s

Compound	RP-LC retention time
COc1ccc(NC(=O)N2CC3CCCN3c3ccccc32)c(OC)c1 (stereo not drawn)	1090 s
Cc1ccc(-n2nc3c(N4CCCC(C(=O)NCCCN5CCCC5=O)C4)nnc(C)c3c2C)cc1 (stereo not drawn)	627 s
Cc1ccc(S(=O)(=O)N2CC3CN(C(=O)COc4cccc(C)c4)CC(C2)O3)cc1	928 s
CC(C)c1nc2cccnc2n1CCN1CCN(C(=O)Nc2ccc(Br)cc2F)CC1	632 s
CCCN(C)C(=O)c1c(C)oc2c1CN(C(=O)COC)CC2	613 s
Cc1cccc(NC(=O)Cn2nc3c(Oc4cccc(Cl)c4)nccn3c2=O)c1	899 s
c1cnc(N2CCN(c3nn4nnnc4c4ccccc34)CC2)nc1	807 s
CSc1ncccc1-c1nc(-c2ccc3oc(C)nc3c2)no1	1100 s
CCc1ccc(C2=C(C)C(N3CCCN(C(=O)NC4CCCC4)CC3)=NS2(=O)=O)cc1	865 s
CCOC(=O)c1[nH]c(C)c(CCC(=O)N2CCC(C(=O)NCCN3CCCCC3)CC2)c1C	590 s
CC1Cc2ccccc2N1C(=O)CC1CCN(S(=O)(=O)c2ccc3c(c2)oc(=O)n3C)CC1 (stereo not drawn)	965 s
O=S(=O)(c1cc(F)ccc1F)N1CCc2nc(-c3ccc(Cl)cc3)ncc2C1	1210 s
CSc1ccc(-c2noc(CN3C(=O)COc4cc(Cl)ccc43)n2)cc1	1170 s
O=C(COc1ccc(Br)cc1)Nc1ccnn1Cc1cccs1	916 s
COc1ccc(Cl)cc1NC(=O)c1c(O)c2cccnc2n(-c2ccc(F)cc2)c1=O	1280 s
COC(=O)c1ccc(NC(=O)C2CCN(c3cc(N4CCCCC4)ncn3)CC2)cc1	715 s
Cc1ccc(NC(=O)Cc2c(C)nn(-c3nc(-c4ccc(C)cc4)cs3)c2C)cc1	1270 s
CSc1ccc(C2c3[nH]c4ccccc4c3CCN2C(=O)c2cccs2)cc1 (stereo not drawn)	1220 s
Cc1ccc2c(c1)N(Cc1ccccc1)N=C(C(=O)N1CCC(C)CC1)S2(=O)=O	1080 s
COc1ccc(CNC(=O)C2CCN(S(C)(=O)=O)c3cc(Cl)ccc3O2)cc1 (stereo not drawn)	877 s
CC(C(=O)N1CCCC1)C1CCN(C(=O)c2ccc3nc(-c4ccccc4)oc3c2)CC1 (stereo not drawn)	818 s
O=C1C2CC=CCC2C(=O)N1c1ccc(N2CCN(c3ccccn3)CC2)c([N+](=O)[O-])c1 (stereo not drawn)	676 s

Compound	RP-LC retention time
CCOc1ccc(CC(=O)N2CCN(S(=O)(=O)c3cc4c5c(c3)CCC(=O)N5CCC4)CC2)cc1	823 s
CC[C@@H]1C(=O)N(C)c2cnc(Nc3ccc(C(=O)NC4CCN(C)CC4)cc3OC)nc2N1C1CCCC1	624 s
CSc1ccc(-c2noc(Cc3nnc(-c4cc(F)cc(F)c4)o3)n2)cc1	1100 s
Cc1cc(NC(=O)c2nc(C(C)C)oc2C)ccc1Cl	1250 s
COCCNC(=O)C1CCN(S(C)(=O)=O)c2cc(Cl)ccc2O1 (stereo not drawn)	710 s
CCOCC(=O)N1CCCN(C2=NS(=O)(=O)C(c3ccc(Cl)cc3)=C2C)CC1	761 s
CN(C)CC1(O)CCC2(CCN(C(=O)c3cccn3C)CC2)CC1	577 s
O=C(CCc1nc(CSc2nnc(-c3ccccc3)o2)no1)Nc1ccc(F)c(Cl)c1	973 s
Cc1ccc(CN(C(=O)c2ccc(OCC(C)C)cc2)C2CCS(=O)(=O)C2)o1 (stereo not drawn)	1060 s
Cc1ccc(S(=O)(=O)N2CC(=O)N(c3ccccc3C)C(C)(C(=O)NC3CCCC3)C2)cc1 (stereo not drawn)	991 s
CCN1C(=O)NC(c2ccccc2C(F)(F)F)C2=C1CN(CCC(=O)NCC(C)C)C2=O (stereo not drawn)	661 s
COc1ccccc1C(=O)N1CCC2(CC1)NC(=O)c1ccc(F)cc1N2C	725 s
CCc1ccc(NS(=O)(=O)c2ccc3c(c2)C(=O)N(CC)c2ncccc2O3)cc1	1020 s
CC1CCN(S(=O)(=O)c2ccc(-c3nnc(C(=O)NC4CC4)o3)cc2)CC1	876 s
O=C(N[C@H](Cc1ccccc1)C(=O)NCc1cscn1)c1cccc(Cl)c1	806 s
COc1cccc(COc2cn(C)c(C(=O)Nc3ccc4c(c3)OCCO4)cc2=O)c1	675 s
CCn1cnc(S(=O)(=O)N2CCC(C(=O)NCc3cccs3)CC2)c1	658 s
O=C(c1cccc(C(F)(F)F)c1)N1CCN(c2nc(CN3CCOCC3)cs2)CC1	644 s
O=C(Cn1cccc1-c1nnc(C2CC2)o1)NCc1ccc2c(c1)OCO2	749 s
Clc1cccc(CN2CCCN(c3ncccc3-c3nc(C4CC4)no3)CC2)c1	723 s
CCCNC(=O)CSc1cc(NCc2ccc(Cl)cc2)ncn1	778 s
Cc1ccc(CSc2nc(CC(=O)NCc3cccnc3)cs2)cc1	605 s

Compound	RP-LC retention time
CC(C)n1c(C2CCN(C(=O)c3cccc(N(C)C)c3)C2)nc2ccncc21 (stereo not drawn)	529 s
CCC(CN(C)Cc1ccccc1)NC(=O)CN(c1ccccc1)S(=O)(=O)N(C)C (stereo not drawn)	686 s
NC(=O)[C@@H]1C[C@@H](O)CN1C1CCN(C(=O)CC2=CCCCC2)CC1	575 s
O=S(=O)(c1ccccc1Br)N1CCc2nc(-c3ccc(F)cc3)ncc2C1	1130 s
O=C(NCc1ccccc1)N1CCC(Nc2cccnc2)C1 (stereo not drawn)	580 s
Cc1ccc(S(=O)(=O)N2CCC(CCNC(=O)NCC(C)C)CC2)cc1	877 s
O=C(CCC(=O)N1CCSc2ccccc21)N1CCN(c2ccccn2)CC1	618 s
C[C@H]1CN(C(=O)Nc2cccc(Cl)c2)C[C@@H]1c1nc(-c2cccnc2)no1	849 s
O=C(Nc1ccccn1)C1CCCN(S(=O)(=O)c2cc(-c3noc(C4CCC4)n3)cs2)C1 (stereo not drawn)	978 s
COc1ccc(CCC(=O)NCCc2cn(C)c3ncccc23)cc1	669 s
Cc1ccccc1-c1nc(Cn2ccnc2C)no1	555 s
Cc1cc(C2CCCN2C(=O)c2cc(-c3ccccc3)no2)no1 (stereo not drawn)	868 s
O=c1c2ccccc2c(-c2nc(-c3cccnc3)no2)nn1-c1ccc(F)cc1	998 s
CCn1cnc(S(=O)(=O)N2CCC(C(=O)Nc3ccc(OC)cc3)CC2)c1	666 s
CCCN(CC1CCOC1)S(=O)(=O)c1ccccc1CC (stereo not drawn)	992 s
Cc1cc(C(=O)NOCCO)c(Nc2ccc(I)cc2F)n(C)c1=O	718 s
COc1ccc(OC)c(CNC(=O)c2cn3cccc(C)c3n2)c1	730 s
O=C(c1ccc(-c2csc(C3CC3)n2)cc1)N1CCN(c2ccccn2)CC1	650 s
O=S(=O)(Cc1cccc(Cl)c1)N1CCc2nc[nH]c2C1	616 s
COc1ccc(CNC(=O)c2cn3cccc(C)c3n2)cc1	695 s
CC(=O)N1CCc2ccccc2C1C(=O)N1CCN(c2ccccn2)CC1 (stereo not drawn)	587 s
COc1cc(OC)cc(-c2nc(C3CC(=O)N(c4ccc(OC)c(OC)c4)C3)no2)c1 (stereo not drawn)	877 s
